Legend:
[1] = system: NQO1 specific enzyme activity in BEAS-2B cells; assay: BEAS-2B NQO1 MTT Assay; assay type: cell-based; settings: Homo sapiens; NQO1 specific activity induction, BEAS-2B cells, 48 hours; read-out: EC50
How it was run: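 BEAS-2B cells plated overnight, treated with compound for 48 h at 37° C, then lysed; NQO1 activity measured kinetically by MTT cocktail at 570 nm over 30 min, with lysate aliquot for Cell Titer Glo. pEC50 from 3-parameter fit of ΔOD/min versus log concentration.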

[2] = biological target: T1, full length Keap1 protein / full length NRF2 protein (Homo sapiens, UniProt Q14145); assay: NRF2-Keap1 TR-FRET Low Protein Assay; assay type: binding
T1 construct: full length NRF2 protein and full length Keap1 protein (Keap1 exists a dimer) are used; His
T1 sequence (Q14145 whole entry): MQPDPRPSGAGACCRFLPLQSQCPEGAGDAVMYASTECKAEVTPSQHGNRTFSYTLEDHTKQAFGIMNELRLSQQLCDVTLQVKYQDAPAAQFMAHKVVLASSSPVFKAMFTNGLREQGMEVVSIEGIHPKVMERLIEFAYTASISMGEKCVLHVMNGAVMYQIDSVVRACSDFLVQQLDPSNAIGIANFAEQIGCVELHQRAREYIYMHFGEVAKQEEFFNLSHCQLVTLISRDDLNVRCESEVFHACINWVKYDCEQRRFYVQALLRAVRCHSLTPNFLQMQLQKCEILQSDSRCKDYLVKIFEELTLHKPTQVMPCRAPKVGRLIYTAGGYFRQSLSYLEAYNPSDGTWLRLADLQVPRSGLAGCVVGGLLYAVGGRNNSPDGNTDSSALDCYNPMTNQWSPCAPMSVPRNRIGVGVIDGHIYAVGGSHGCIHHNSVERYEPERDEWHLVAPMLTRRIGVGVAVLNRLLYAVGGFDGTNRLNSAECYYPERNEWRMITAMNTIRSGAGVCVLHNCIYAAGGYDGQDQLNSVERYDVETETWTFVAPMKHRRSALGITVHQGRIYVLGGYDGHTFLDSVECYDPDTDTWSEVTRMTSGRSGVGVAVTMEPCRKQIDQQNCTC
How it was run: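 Compounds were preincubated with Keap1 FlagHis (1.25 nM) for 2.25 h at 37° C, then biotin-NRF2 (2.5 nM) was added for 1.25 h at 4° C in pH 8.0 Tris buffer with DTT/CHAPS. After 1 h with Eu-streptavidin/anti-Flag APC, the 665/615 nm ratio was normalized to controls and pIC50 fitted by four-parameter equation.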

For `COc1ccccc1S(=O)(=O)N(C)C1CCc2ccc(-n3ncc(C(=O)O)c3[C@@H]3C[C@H]3c3cn(C)nn3)cc21` (stereo partly drawn) [Example 27, 1-(3-(2-methoxy-N-methylphenylsulfonamido)-2,3-dihydro-1H-inden-5-yl)-5-((1R,2R)-2-(1-methyl-1H-1,2,3-triazol-4-yl)cyclopropyl)-1H-pyrazole-4-carboxylic acid], the EC50 [1] was 100 to 1000 nM and the EC50 [2] was 10000 to 100000 nM.

With `CC[C@@H]1CN(Cc2cc(-n3ncc(C(=O)O)c3[C@@H]3C[C@H]3c3cn(C)nn3)ccc2C)Cc2ccccc2O1` [Example 28] the EC50 [1] was 100 to 1000 nM and the EC50 [2] was 1000 to 10000 nM.

In the case of `CC[C@@H]1CN(Cc2cccc(-n3ncc(C(=O)O)c3[C@@H]3C[C@H]3c3cn(CC(F)(F)F)nn3)c2)S(=O)(=O)c2ccccc2O1` [Example 29], the EC50 [1] is reported as 100 to 1000 nM and the EC50 [2] is reported as 10 to 100 nM.

`C[C@H]1Cc2cc(C(F)(F)F)ccc2S(=O)(=O)N(Cc2cccc(-n3ncc(C(=O)O)c3[C@@H]3C[C@H]3c3cnn(C)c3)c2)C1` [Example 30, 1-(3-(((S)-4-Methyl-1,1-dioxido-7-(trifluoromethyl)-4,5-dihydrobenzo[f][1,2]thiazepin-2(3H)-yl)methyl)phenyl)-5-(trans-2-(1-methyl-1H-pyrazol-4-yl)cyclopropyl)-1H-pyrazole-4-carboxylic acid] gave an EC50 [1] of 1000 to 10000 nM and an EC50 [2] of 100 to 1000 nM.

With `CC[C@@H]1CN(Cc2cccc(-n3ncc(C(=O)O)c3[C@@H]3C[C@H]3c3cnn(C)c3)c2)S(=O)(=O)c2ccccc2O1` [Example 31, 1-(3-(((R)-4-ethyl-1,1-dioxido-3,4-dihydro-2H-benzo[b][1,4,5]oxathiazepin-2-yl)methyl)-phenyl)-5-(trans-2-(1-methyl-1H-pyrazol-4-yl)cyclopropyl)-1H-pyrazole-4-carboxylic acid] the EC50 [1] was 1000 to 10000 nM and the EC50 [2] was 1000 to 10000 nM.

For `C[C@H]1Cc2ccccc2S(=O)(=O)N(Cc2cccc(-n3ncc(C(=O)O)c3[C@@H]3C[C@H]3c3cnn(C)c3)c2)C1` [Example 32, 1-(3-(((S)-4-methyl-1,1-dioxido-4,5-dihydrobenzo[f][1,2]thiazepin-2(3H)-yl)methyl)-phenyl)-5-(trans-2-(1-methyl-1H-pyrazol-4-yl)cyclopropyl)-1H-pyrazole-4-carboxylic acid], the EC50 [1] was 1000 to 10000 nM and the EC50 [2] was 1000 to 10000 nM.

With `C[C@@H]1Cc2cc(C(F)(F)F)ccc2S(=O)(=O)N(Cc2cccc(-n3ncc(C(=O)O)c3[C@@H]3C[C@H]3c3cnn(C)c3)c2)C1` [Example 33, 1-(3-(((R)-4-methyl-1,1-dioxido-7-(trifluoromethyl)-4,5-dihydro-benzo[f][1,2]thiazepin-2(3H)-yl)methyl)phenyl)-5-(trans-2-(1-methyl-1H-pyrazol-4-yl)cyclopropyl)-1H-pyrazole-4-carboxylic acid] the EC50 [1] was 1000 to 10000 nM and the EC50 [2] was 10000 to 100000 nM.

— patent US20200071310A1, “N-ARYL PYRAZOLES AS NRF2 REGULATORS” (GLAXOSMITHKLINE INTELLECTUAL PROPERTY DEVELOPMENT LIMITED, priority 2016, published 2020)
